Literature values in US20070213265A1, “Kunitz-type sequences and polypeptides” (Novo Nordisk A/S, priority 2001, published 2007).
Values belong to the substance of their own block, whether it stands above or below them.

Columns and labels:
[1] = high doses; cardiac surgery, including cardiopulmonary bypass operations
plasma kallikrein = plasma kallikrein (Homo sapiens, UniProt P03952)
granulocyte elastase = granulocyte elastase (Homo sapiens, UniProt P08246)
granulocyte elastase, sequence (P08246 30-267): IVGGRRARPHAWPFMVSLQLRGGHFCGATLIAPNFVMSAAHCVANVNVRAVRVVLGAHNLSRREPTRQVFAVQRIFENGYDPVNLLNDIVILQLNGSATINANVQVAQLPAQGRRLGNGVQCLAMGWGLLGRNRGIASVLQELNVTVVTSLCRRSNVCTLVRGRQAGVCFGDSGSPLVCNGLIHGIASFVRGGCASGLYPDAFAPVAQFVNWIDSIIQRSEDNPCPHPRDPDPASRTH

plasma kallikrein, sequence (P03952 20-638, species assumed): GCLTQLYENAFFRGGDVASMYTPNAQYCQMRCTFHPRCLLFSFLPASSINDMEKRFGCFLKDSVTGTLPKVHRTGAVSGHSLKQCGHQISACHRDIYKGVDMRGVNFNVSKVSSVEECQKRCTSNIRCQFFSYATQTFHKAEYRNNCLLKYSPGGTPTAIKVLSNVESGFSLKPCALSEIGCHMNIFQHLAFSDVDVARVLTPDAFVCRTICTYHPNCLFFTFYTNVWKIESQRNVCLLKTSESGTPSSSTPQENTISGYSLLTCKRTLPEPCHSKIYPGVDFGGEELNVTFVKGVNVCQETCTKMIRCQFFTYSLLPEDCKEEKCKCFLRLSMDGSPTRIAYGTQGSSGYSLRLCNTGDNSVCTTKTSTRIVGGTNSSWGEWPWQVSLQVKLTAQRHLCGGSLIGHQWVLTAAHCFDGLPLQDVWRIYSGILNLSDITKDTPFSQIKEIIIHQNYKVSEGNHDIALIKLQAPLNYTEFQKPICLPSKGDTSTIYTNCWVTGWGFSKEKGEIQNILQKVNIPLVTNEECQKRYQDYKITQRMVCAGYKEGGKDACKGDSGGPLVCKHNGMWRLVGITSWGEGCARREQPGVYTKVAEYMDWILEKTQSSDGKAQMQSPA

effect on elastase (elastase): weak effect
Substance: Aprotinin (1-58, Ala15)

Substance: aprotinin
blood loss [1]: significantly reduces blood loss

plasma kallikrein inhibitory effect (plasma kallikrein): excellent
Substance: aprotinin (3-58, Arg15, Ala17, Ser42)

Substance: aprotinin(1-58, Val15)
selectivity for granulocyte elastase (granulocyte elastase): relatively high selectivity | inhibitory effect on collagenase (collagenase): inhibitory effect
